Legend:
Assay type in all cases: physicochemical
[1] = Maximum absorption wavelength, absorbance and absorption coefficient (visible light spectrophotometer); details: for Absorbance (abs) / Maximum absorption wavelength (λmax): 0.001%-by-mass n-decane solution; for Molar absorption coefficient (ε): at maximum absorption wavelength, calculated by Lambert-Beer law, n-decane solution; for molar extinction coefficients (ε) (in words): summary of Table 1
From the text: (§1) Azamethine colorants (the above-mentioned Exemplary Compounds 16, 17, 1, and 3 shown in Table 1 below) and n-decane that was an organic solvent were mixed, respectively, thereby preparing 4 kinds of 0.001%-by-mass n-decane solutions (colored compositions) colored with the azamethine colorants, respectively.
(§2) Separately, azo colorants (Comparative Compounds 1 to 3 mentioned below) and n-decane that was an organic solvent were mixed, respectively, thereby preparing 3 kinds of 0.001%-by-mass n-decane solutions (comparative colored compositions) colored with the azo colorants, respectively, as comparative colored compositions.
The maximum absorption wavelength (λmax) and the absorbance of the colored solutions (colored compositions) were measured using a visible light spectrophotometer (UV-1800 PC, trade name, manufactured by Shimadzu Corporation). Further, the molar extinction coefficient (∈) at a maximum absorption wavelength (λmax) of the colorants included in the colored solutions (the colored compositions) was calculated, based on a Lambert-Beer law.

[2] = Solubility in hexane; details: for Solubility in hexane [%]: n-hexane, 25° C. and 0.1 MPa, % by mass; for solubility in hexane (in words): summary of Table 1
Procedure: The solubility of each of the colorants in n-hexane as a non-polar solvent was measured as described below.
The respective colorants were each dissolved in n-hexane that had been heated to 50° C. to prepare a saturated solution, and then, the obtained saturated solution was left to stand for 1 hour under an environment of 25° C. and 0.1 MPa. The precipitated colorant was filtered, and the precipitation amount was measured to calculate the solubility (% by mass) of each of the colorants in n-hexane at 25° C. and 0.1 MPa.

[3] = Relative dielectric constant of colorant; details: for Relative dielectric constant (1 kHz): extrapolated to colorant concentration 100% from diluted n-decane solutions, 1.0 V, 20° C., 40% RH; for relative dielectric constants (in words): summary of Table 1
Procedure: Herein, the relative dielectric constant of the colorant denotes a relative dielectric constant (calculated value) at a colorant concentration of 100%, as determined by extrapolating a straight line (calibration curve) indicating the relationship between the colorant concentration and the relative dielectric constant in a diluted colorant solution.
An equivalent parallel capacitance when a measurement frequency 1 kHz and a measurement voltage of 1.0 V are applied is measured in the state in which a diluted colorant solution is sandwiched between two electrodes facing each other with an electrode interval of 10 μm, and the relative dielectric constant of the diluted colorant solution is calculated by the following equation, based on the equivalent parallel capacitance thus obtained. Relative dielectric constant of diluted colorant solution=Equivalent parallel capacitance×Electrode interval/Electrode area/Dielectric constant of vacuum (∈0)
The relative dielectric constant of each of the colorants is determined by the following method.
That is, the relative dielectric constants of plural diluted colorant solutions at various concentrations, which had been prepared as described in (4-1) below, were measured, respectively, in the manner as described in (4-2) below. From the results obtained, a straight line (calibration curve) showing the relationship between the colorant concentrations and the relative dielectric constants were created. The relative dielectric constant (calculated value) at a colorant concentration of 100% was determined by extrapolating the straight line (calibration curve), and the obtained value was taken as the relative dielectric constant of the colorant.
The respective colorants and n-decane as an organic solvent are mixed, to thereby prepare n-decane solutions (diluted colorant solutions) at various concentrations, respectively.
A diluted colorant solution was sandwiched between ITO electrode-containing glass substrates that are flat plates in parallel facing each other at an electrode interval of 10 μm, and then an equivalent parallel capacitance was measured at the time of voltage application for measurement of 1.0 V at a frequency for measurement of 1 kHz under the conditions of 20° C. and 40% RH using a Model 2353LCR meter (trade name, manufactured by NF Corporation). Based on the equivalent parallel capacitance, the relative dielectric constant of the diluted colorant solution was determined in accordance with the following equation.
Relative dielectric constant of diluted colorant solution=Equivalent parallel capacitance×Interval of electrodes/Area of electrode/Dielectric constant of vacuum (∈0)

[4] = Color tone of colored solution, visually observed; details: 0.001%-by-mass n-decane solution
From the text: as §1, §2
Each of the colored solutions (colored compositions) was visually observed and evaluated regarding the color tone thereof.

Row | Absorbance (abs) [1] [abs] | Maximum absorption wavelength (λmax) [1] [nm] | Molar absorption coefficient (ε) [1] [L/mol/cm] | molar extinction coefficients (ε) (in words) [1] | Solubility in hexane [%] [2] | solubility in hexane (in words) [2] | Relative dielectric constant (1 kHz) [3] | relative dielectric constants (in words) [3] | Color of solution [4] | Compound
1 | 0.533 | 492 | 28600 | high | 10% | high solubility | 3.3 | low | Orange | CCCCC(CC)c1nnc2n1N=C(C(C)(C)C)/C2=N/c1c(C(C)(C)C)nn2c(C(CC)CCCC)n[nH]c12 (stereo not drawn) [Exemplary Compound 1]
2 | 0.797 | 545 | 56900 | high | ≥ 40 or % | high solubility | 5.1 | low | Red | CCCCC(CC)c1n[nH]c2c(/N=C3/C(C#N)=C(C(=O)OC4C(C(C)(C)C)CC(C)CC4C(C)(C)C)c4nc(C(C)(C)C)nn43)c(C(C)(C)C)nn12 (stereo not drawn) [Exemplary Compound 3]

From patent US9256062B2, “Electrowetting display apparatus and dye composition for electrowetting display” (FUJIFILM CORPORATION, priority 2012, dated 2016)
